Measured values from US6784167B2, “17-beta-hydroxysteroid dehydrogenase-II inhibitors” (Bayer Pharmaceuticals Corporation, priority 2000, dated 2004).
Like-named read-outs stand apart in the source and are kept apart here.

How the values were obtained:
[1] = molecular target: T1, 17-Beta HSD II Enzyme (Homo sapiens, UniProt P37059); experiment: Primary assay: inhibition of 17-Beta HSD II enzyme (estradiol/NAD, PMS:MTS colorimetric readout at 490 nm); format: biochemical; conditions: Table 7, baculovirus-expressed recombinant HSD II, estradiol substrate
T1 construct: made in house; host or cells: insect cells (baculovirus)
T1 sequence (P37059 1-387): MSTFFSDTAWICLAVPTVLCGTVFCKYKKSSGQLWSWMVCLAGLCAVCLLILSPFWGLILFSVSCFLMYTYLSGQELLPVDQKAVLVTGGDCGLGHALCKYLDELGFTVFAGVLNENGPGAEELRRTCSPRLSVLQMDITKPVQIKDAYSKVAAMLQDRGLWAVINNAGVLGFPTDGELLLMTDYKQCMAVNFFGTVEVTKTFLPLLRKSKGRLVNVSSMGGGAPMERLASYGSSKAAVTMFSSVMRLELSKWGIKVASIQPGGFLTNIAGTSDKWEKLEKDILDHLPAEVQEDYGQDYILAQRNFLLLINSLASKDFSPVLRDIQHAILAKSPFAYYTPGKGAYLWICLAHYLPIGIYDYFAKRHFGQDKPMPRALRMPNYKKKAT
Protocol: HSD II protein purification: The method for purification of baculovirus-expressed HSD II was standardized as follows. The insect cell pellet containing recombinant HSD II was lysed in 2.5 volumes of lysis buffer (40 mM Tris, pH 7.5, 1 mM EDTA, 2 mM DTT, 10 uM NAD) containing 500 uM AEBSF, 10 ug/ml aprotinin, 1 uM pepstatin A, and 100 uM leupeptin. The pellet was nutated for 30 min in this buffer. Subsequently, the pellet was homogenized with 15 strokes using a glass and teflon potter. The volume was doubled with a 2× sucrose/NaCl solution (500 mM sucrose, 300 mM NaCl in lysis buffer). After centrifugation at 10,000×g for 30 min, the supernatant was decanted and stored at −20° C. The pellet was resuspended in 2.5 volumes of lysis buffer containing 250 mM sucrose and 150 mM NaCl. Homogenization was repeated (15 strokes) and the suspension was centrifuged again and the decanted supernatant was stored at −20° C. The pellet was resuspended with 2 times the original pellet volume in lysis buffer containing 150 mM NaCl and 1% Triton X-100. The suspension was nutated for 20 min and then homogenized with 5 strokes. Subsequently, the suspension was centrifuged at 30,000×g for 1 h and supernatant was decanted and poured into a chromatographic column. Sephadex G-25 (fine) was added in small amounts, allowing approximately 15 min after each addition for complete swelling. Sephadex addition was continued until all liquid was absorbed. The protein was eluted with 1 void volume of lysis buffer and eluate monitored at 280 nm optical density. The chromatographic procedure was repeated and an equal volume of glycerol was added to the final eluate.
Primary assay: After titration, the HSD II prep, generated with the standard protocol, was diluted to the appropriate concentration (generally 1/15 dilution). 55 μl of assay buffer (50 mM Hepes, pH 8.0) was added to all wells of a 96 well plate. 5 μl of 5% DMSO were added to wells A1-C1, A2-C2, F1-H1, and F2-H2. A 10 μl aliquot of a 10 mM solution in DMSO of each compound was diluted in 190 μl of assay buffer. The plate with these compound dilutions was then mixed for 15 min on a shaker and a 5 μl aliquot from each well was added to the […]. This was followed by 10 μl of HSD II enzyme ( 1/15 dilution)/estradiol mix in assay buffer containing 1% Triton X-100. The estradiol […] from a 20 mM estradiol DMSO stock solution, which was diluted 1/20 (50 μl/ml) in 50 mM Hepes buffer containing 1% Triton X-100. All wells, except F1-H1 and F2-H2, also received 10 μl of 25 mg/ml NAD (SIGMA) in 100 mM Hepes, pH 9. The blank wells F1-H1 and F2-H2 received 10 μl of NAD buffer. 20 μl of PMS:MTS solution (100 μl PMS into 1800 μl MTS, Promega) was added to all wells. The plate was covered with aluminum foil and incubated at room temperature for 1.5 h. The plate was analyzed at 490 nm on a Hewlett Pachard 8453 spectrophotometer and results were calculated.

[2] = read-out: IC50 values ≧2 μM and <10 μM

Row | IC50 [1] | melting point | IC50 [1, 2] | SMILES
1 | < 0.5 µM | 195 °C |  | CN1C(=O)C[C@H](c2cccc(F)c2)[C@@H]1[C@H](O)c1ccc(-c2ccc(F)cc2)s1 (racemic) [Example 85]
2 | < 0.5 µM | 232 °C |  | CN1C(=O)C[C@H](c2ccccc2F)[C@@H]1[C@H](O)c1ccc(S(=O)(=O)c2ccccc2)s1 (racemic) [Example 89]
3 | < 0.5 µM | 160 °C |  | COc1ccccc1[C@H]1CC(=O)N(C)[C@H]1[C@H](O)c1ccc(S(=O)(=O)c2ccccc2)s1 (racemic) [Example 91]
4 |  | 255 to 256 °C | 2 to 10 µM | CN1C(=O)C[C@H](c2ccccc2)[C@@H]1[C@H](O)c1cccc2ccccc12 (racemic) [Example 94]
5 | < 0.5 µM | 173 to 176 °C |  | CN1C(=O)C[C@H](c2ccccc2)[C@@H]1[C@H](O)c1cccc(-c2ccccc2)c1 (racemic) [Example 98]
6 |  | 210 °C | 2 to 10 µM | CN1C(=O)C[C@H](c2ccccc2)[C@@H]1[C@H](O)c1cccc(-c2ccc(F)cc2)c1 (racemic) [Example 104]
7 |  | 183 °C | 2 to 10 µM | CN1C(=O)C[C@H](c2ccccc2)[C@@H]1[C@H](O)c1cccc(-c2cccc([N+](=O)[O-])c2)c1 (racemic) [Example 106]
8 |  | 183 °C | 2 to 10 µM | CSc1ccc(-c2ccc([C@@H](O)[C@H]3[C@@H](c4ccccc4)CC(=O)N3C)o2)cc1 (racemic) [Example 116]
9 |  | 194 °C | 2 to 10 µM | CN1C(=O)C[C@H](c2ccccc2)[C@@H]1[C@H](O)c1ccc(-c2ccc(C(=O)O)cc2)o1 (racemic) [Example 118]
10 |  | 193 °C | 2 to 10 µM | CC(=O)Nc1cccc(-c2ccc([C@@H](O)[C@H]3[C@@H](c4ccccc4)CC(=O)N3C)o2)c1 (racemic) [Example 121]
11 | < 0.5 µM | 139 to 140 °C |  | CN1C(=O)C[C@H](c2ccccc2)[C@@H]1[C@H](O)C#Cc1ccccc1Cl (racemic) [Example 126]
12 |  | 217 to 218 °C | 2 to 10 µM | CN1C(=O)C[C@H](c2ccccc2)[C@@H]1[C@H](O)C#CCN1CCS(=O)(=O)CC1 (racemic) [Example 130]
13 | < 0.5 µM | 175 to 176 °C |  | Cc1ccc(C)n1-c1cccc(C#C[C@@H](O)[C@H]2[C@@H](c3ccccc3)CC(=O)N2C)c1 (racemic) [Example 131]
14 | < 0.5 µM | 205 to 207 °C |  | CN1C(=O)CC(c2ccccc2)C1C(O)C#Cc1cccc(N)c1 (racemic) [Example 133]
15 |  | 217 to 218 °C | 2 to 10 µM | CN1C(=O)C[C@H](c2ccccc2)[C@@H]1[C@H](O)C#Cc1ccc(-c2ccccc2)cc1 (racemic) [Example 136]
16 | < 0.5 µM | 178 °C |  | CN1C(=O)CC(c2ccccc2F)C1C(O)c1ccc(-c2ccc(F)cc2)s1 (stereo not drawn) [Example 84]
17 |  | 172 °C | 2 to 10 µM | COc1cccc(C2CC(=O)N(C)C2C(O)c2ccc(-c3ccc(F)cc3)s2)c1 (stereo not drawn) [Example 87]
18 | < 0.5 µM | 220 °C |  | COc1ccccc1C1CC(=O)N(C)C1C(O)c1ccc(S(=O)(=O)c2ccc(Cl)cc2)s1 (stereo not drawn) [Example 92]
19 | < 0.5 µM | 193 to 195 °C |  | CN1C(=O)CC(c2ccccc2)C1C(O)c1ccc(Cl)c(Cl)c1 (stereo not drawn) [Example 99]
20 |  | 187 °C | 2 to 10 µM | Cc1ccc(-c2ccc(C(O)C3C(c4ccccc4)CC(=O)N3C)o2)cc1 (stereo not drawn) [Example 115]
21 |  | 184 °C | 2 to 10 µM | CN1C(=O)CC(c2ccccc2)C1C(O)c1ccc(-c2ccccc2)o1 (stereo not drawn) [Example 117]

Second part, the molecule before the results:

Row | SMILES | IC50 [1] | melting point | IC50 [1, 2]
22 | CN1C(=O)C[C@H](c2ccccc2)[C@@H]1[C@H](O)Cc1cccc(Cl)c1 (relative stereo) [Example 9, (±)-(4R*,5R*)-5-[(1R*)-2-(3-chlorophenyl)-1-hydroxyethyl]-1-methyl-4-phenylpyrrolidin-2-one] |  | 50 to 52 °C | 2 to 10 µM
23 | CO[C@H](c1cccs1)[C@H]1[C@@H](c2ccccc2)CC(=O)N1C (relative stereo) [Example 12, (±)-(4R*,5R*)-5-((1S*)-methoxy-2-thienylmethyl)-1-methyl-4-phenylpyrrolidin-2-one] |  | 101 to 102 °C | 2 to 10 µM
24 | CN1C(=O)C[C@H](c2ccc(N)cc2)[C@@H]1[C@H](O)c1ccc(-c2ccccc2)s1 (relative stereo) [Example 17, (±)-(4R*,5R*)-5-[(1S*)-hydroxy(5-phenyl(2-thienyl))methyl]-4-(4-aminophenyl)-1-methylpyrrolidin-2-one] | < 0.5 µM | 221 to 222 °C | 
25 | C#Cc1ccc([C@@H](O)[C@H]2[C@@H](c3ccccc3)CC(=O)N2C)s1 (relative stereo) [Example 23, (±)-(4R*,5R*)-5-[(1S*)(5-ethynyl(2-thienyl))hydroxymethyl]-1-methyl-4-phenylpyrrolidin-2-one] | < 0.5 µM | 187 °C | 
26 | CN1C(=O)C[C@H](c2ccccc2)[C@@H]1[C@H](O)c1ccc(-c2ccc[n+]([O-])c2)s1 [Example 26, (4R,5R)-5-{(S)-hydroxy[5-(1-oxido-3-pyridinyl)-2-thienyl]methyl}-1-methyl-4-phenyl 2-pyrrolidinone] | < 0.5 µM | 138 to 140 °C | 
27 | CN1C(=O)CC(c2ccccc2)C1C(O)c1ccc(-c2ccc(C(F)(F)F)cc2)s1 (stereo not drawn) [Example 32] |  | 206 °C | 2 to 10 µM
28 | CN1C(=O)CC(c2ccccc2)C1C(O)c1ccc(S(=O)(=O)N2CCOCC2)s1 (stereo not drawn) [Example 36] | < 0.5 µM | 214 to 218 °C | 
29 | CN1C(=O)CC(c2ccccc2)C1C(O)c1ccc(-c2ccc(-c3ccccc3)c(F)c2)s1 (stereo not drawn) [Example 47] |  | 170 °C | 2 to 10 µM
30 | CN1C(=O)CC(c2ccccc2)C1C(O)c1ccc(-c2ccccn2)s1 (stereo not drawn) [Example 50] | < 0.5 µM | 234 °C (dec.) | 
31 | CN1C(=O)CC(c2ccccc2)C1C(O)c1ccc(-c2ccc(O)cc2)s1 (stereo not drawn) [Example 52] | < 0.5 µM | 184 to 186 °C (dec.) | 
32 | CN1C(=O)CC(c2ccccc2)C1C(O)c1ccc(CCc2ccc(F)cc2)s1 (stereo not drawn) [Example 57] | < 0.5 µM | 123 to 125 °C | 
33 | CN1C(=O)CC(c2ccccc2)C1C(O)c1ccc(Sc2ccccc2)s1 (stereo not drawn) [Example 66] | < 0.5 µM | 172 °C | 
34 | CN1C(=O)CC(c2ccccc2)C1C(O)c1ccc(-c2cccc(N)c2)s1 (stereo not drawn) [Example 67] | < 0.5 µM | 190 °C | 
35 | CN1C(=O)CC(c2ccccc2)C1C(O)c1ccc(-c2ccc(C(=O)O)cc2)s1 (stereo not drawn) [Example 68] | < 0.5 µM | 232 °C (dec.) | 
36 | CN1C(=O)CC(c2ccccc2)C1C(O)c1ccc(S(=O)(=O)c2ccccc2)s1 (stereo not drawn) [Example 70] | < 0.5 µM | 247 °C | 
37 | CN(C)c1cccc(-c2ccc(C(O)C3C(c4ccccc4)CC(=O)N3C)s2)c1 (stereo not drawn) [Example 74] | < 0.5 µM | 193 °C | 
38 | CN1C(=O)CC(c2ccccc2)C1C(O)c1ccc(S(=O)(=O)c2ccc(F)cc2)s1 (stereo not drawn) [Example 76] | < 0.5 µM | 192 °C | 
39 | CN1C(=O)CC(c2ccccc2)C1C(O)c1ccc(-c2ccc(C#N)cc2)s1 (stereo not drawn) [Example 80] | < 0.5 µM | 146 °C | 
